Source: US7273848B2, “Apolipoprotein A-I agonists and their use to treat dyslipidemic disorders” (priority 1997, dated 2007)
Several values for one entry are separate records, joined by “and”; a condition that tells them apart may be missing. Equal entries are not always repeated. One block for each sequence: values may come before it. No end group written: not given here.

What was measured:
[1] = system: HDL cholesterol; assay: HDL cholesterol in rabbits after injection of phospholipid/peptide complex; assay type: in vivo, rabbit; settings: for Increase in HDL Cholesterol (%): 8 mg/kg i.v. as peptide/DPPC complexes
Experimental: Small discoidal particles consisting of phospholipid (DPPC) and peptide 146 (SEQ ID NO:146) were prepared following the cholate dialysis method. The phospholipid was dissolved in chloroform and dried under a stream of nitrogen. The peptide was dissolved in buffer (saline) at a concentration of 1-2 mg/ml. The lipid film was redissolved in buffer containing cholate (43° C.) and the peptide solution was added at a 3-1 phospholipid/peptide ratio. The mixture was incubated overnight at 43° C. and then dialyzed at 43° C. (24 hr.), room temperature (24 hr.) and 4° C. (24 hr.), with three changes of buffer (large volumes) at temperature point. The complexes were filter sterilized (0.22μ) for injection and storage at 4° C.
Male New Zealand White rabbits (2.5-3 kg) were injected intravenously with a dose of phospholipid/peptide complex (8 mg/kg bodyweight peptide 146 (SEQ ID NO:146) or 10 mg/kg bodyweight ApoA-I, expressed as peptide or protein content) in a single bolus injection not exceeding 10-15 ml. The animals were slightly sedated before the manipulations. Blood samples (collected on EDTA) were taken before and 5, 15, 30, 60, 240 and 1440 minutes after injection. The hematocrit (Hct) was determined for each sample. Samples were aliquoted and stored at −20° C. before analysis.
Plasma Lipids. The total plasma cholesterol, plasma triglycerides and plasma phospholipids were determined enzymatically using commercially available assays according to the manufacturer's protocols (Boehringer Mannheim, Mannheim, Germany and Biomerieux, 69280, Marcy-l'étoile, France).
Lipoprotein Profiles. The plasma lipoprotein profiles of the fractions obtained after the separation of the plasma into its lipoprotein fractions were determined by spinning in a sucrose density gradient. The fractions were collected and in each individual fraction the phospholipid and cholesterol content was measured enzymatically.

[2] = Lipid binding by fluorescence spectroscopy
Experimental: The lipid binding properties of the peptides synthesized in Section 6, supra, were tested by fluorescence measurements with labeled peptides, in the present case Tryptophane (Trp or W) or Naphtylalanine (Nal). The fluorescence spectra were recorded on a Fluoromax from Spex (Jobin-Yvon) equipped with a Xenon lamp of 150 W, two monochromators (excitation and emission), a photomultiplier R-928 for detection sensitive in the red up to 850 nm and a thermoelectric magnetic stirred cell holder. Quartz Suprasil cuvettes were used for measurements in the micromolar concentration range. A device of variable slits (from 0.4 to 5 nm) allows modulation of the incident and emitted intensities according to the concentration of peptide used. The reported values are in general the average of between 2 to 4 spectra. The peptide concentration is determined by absorption spectrometry on a Philips PU 8800 using the absorption band of the Trp (ε280 nm=5,550 M^−1 cm^−1 in Tris buffer) or the Nal (ε224 nm =92,770 M^−1 cm^−1 in methanol)
Fluorescence spectra of the peptides were recorded between 290 nm and 450 nm in Tris-HCl buffer (20 mM, pH=7.5), in the presence and absence of lipidic vesicles. The small unilamellar vesicles were formed after rehydration in buffer of the lyophilized phospholipids, dispersion and tip sonification under a N2 stream. The lipids used were either Egg PC/Chol. (20:1) or POPC/Chol. (20:1). The spectra were recorded at a peptide concentration of 2 μM and at a temperature of 37° C. The fluorescence reference standard in the case of Trp was N-acetyltryptophanylamide (NATA).
Lipid binding studies were done through progressive lipidic vesicle addition to the peptide in solution at 2 μM (slits: 5 nm in excitation and 1.5 nm in emission). Dilution effects were taken into account for the fluorescence intensity determination. The lipid concentrations were varied from 10 to 600 μM and the molar ratio of lipid to peptide (Ri) was varied from 5 to 300. The wavelength of excitation was set at 280 nm for both Trp and Nal.
The data were directly recorded and treated by an IBM-PC linked to the spectrofluorimeter through the DM3000F software from Spex. The spectra were corrected by substraction of the solvent contribution and by application of a coefficient given by the constructor taking into account the variation of the photomultiplier response versus the wavelength.
The fluorescence spectra of the peptides were characterized by the wavelength at their maximum of fluorescence emission and by their quantum yield compared to NATA in the case of peptides labeled with a tryptophane. The process of binding to lipids was analyzed by calculating the shift of the wavelength at the maximum of fluorescence emission, (λmax), and the variation of the relative fluorescence intensity of emission versus the lipid concentration. The relative fluorescence intensity is defined as the following ratio: (I-I0)λmax/I0λmax. I and I0 are both measured at the (λmax) corresponding to the initial free state of the peptide, i.e., without lipids. I is the intensity at a defined lipid to peptide ratio and I0 is the same parameter measured in absence of lipids. The absence of these variations is relevant of the absence of interactions of the peptides with the lipids.

Sequence: PVLELFENLLERLLDALQKKLK [peptide 146]
duration of the increase in cholesterol of the HDL cholesterol fractions ([1]; 8 mg/kg as peptide/DPPC complexes, apparent at 5 min.): approximately 24 hr
Increase in HDL Cholesterol (%) ([1]; 5 min.): 31.3%
Increase in HDL Cholesterol (%) ([1]; 15 min.): 60.4%
Increase in HDL Cholesterol (%) ([1]; 60 min.): 42.9%
Increase in HDL Cholesterol (%) ([1]; 240 min., 8 mg/kg): 90% and 90.2%
Increase in HDL Cholesterol (%) ([1]; 1440 min.): 71.2%
mobilization of peripheral cholesterol (in words) ([1]; peptide/DPPC complexes 8 mg/kg): induces rapid and efficient mobilization of peripheral cholesterol

lipid to peptide molar ratio at which burying of the tryptophane residue is maximal ([2]; EPC/Chol (20:1) SUVs): about 30
λmax (nm) ([2]; Ri 0 (buffer, no lipids), 2 μM): 347 nm
I/Io ([2]; Ri 0, 2 μM peptide, 37° C.): 0
I/Io ([2]; Ri 5): 19.7
λmax (nm) ([2]; Ri 5): 334.5 nm
I/Io ([2]; Ri 10): 31.4
λmax (nm) ([2]; Ri 10): 329 nm
I/Io ([2]; Ri 30): 49.4
λmax (nm) ([2]; Ri 30): 325.5 nm
I/Io ([2]; Ri 60): 64.3
λmax (nm) ([2]; Ri 60): 325 nm
I/Io ([2]; Ri 100): 77
λmax (nm) ([2]; Ri 100): 325.5 nm
I/Io ([2]; Ri 200): 84
λmax (nm) ([2]; Ri 200): 325 nm
wavelength for the tryptophane maximum fluorescence emission after binding ([2]; bound to EPC/Chol (20:1) SUVs): 325 nm
lipid binding (in words) ([2]; small unilamellar vesicles): binds very effectively
Sequence: PVLELFENLWERLLDALQKKLK [peptide 149]
